From ChEMBL document CHEMBL5678810

Key:
[1] = target: Mitogen-activated protein kinase 11 (Homo sapiens) (UniProt Q15759); assay: Inhibition of T7 bacteriophage fused human p38-beta at 10 uM by KINOMEscan analysis relative to control; values are per cent of control
[2] = target: BMP-2-inducible protein kinase (Homo sapiens) (UniProt Q9NSY1); assay: Inhibition of T7 bacteriophage fused human BIKE at 10 uM by KINOMEscan analysis relative to control
[3] = target: Ephrin type-B receptor 2 (Homo sapiens) (UniProt P29323); assay: Inhibition of T7 bacteriophage fused human EPHB2 at 10 uM by KINOMEscan analysis relative to control
[4] = target: Hormonally up-regulated neu tumor-associated kinase (Homo sapiens) (UniProt P57058); assay: Inhibition of T7 bacteriophage fused human HUNK at 10 uM by KINOMEscan analysis relative to control
[5] = target: Cyclin-dependent kinase 7 (Homo sapiens) (UniProt P50613); assay: Inhibition of T7 bacteriophage fused human CDK7 at 10 uM by KINOMEscan analysis relative to control
[6] = target: Mitogen-activated protein kinase kinase kinase 3 (Homo sapiens) (UniProt Q99759); assay: Inhibition of T7 bacteriophage fused human MAP3K3 at 10 uM by KINOMEscan analysis relative to control
[7] = target: MAP kinase-interacting serine/threonine-protein kinase 1 (Homo sapiens) (UniProt Q9BUB5); assay: Inhibition of T7 bacteriophage fused human MKNK1 at 10 uM by KINOMEscan analysis relative to control; values are per cent of control
[8] = target: Homeodomain-interacting protein kinase 1 (Homo sapiens) (UniProt Q86Z02); assay: Inhibition of T7 bacteriophage fused human HIPK1 at 10 uM by KINOMEscan analysis relative to control
[9] = target: Tyrosine-protein kinase HCK (Homo sapiens) (UniProt P08631); assay: Inhibition of T7 bacteriophage fused human HCK at 10 uM by KINOMEscan analysis relative to control
[10] = target: Serine/threonine-protein kinase PAK 3 (Homo sapiens) (UniProt O75914); assay: Inhibition of T7 bacteriophage fused human PAK3 at 10 uM by KINOMEscan analysis relative to control
[11] = test system: eIF-2-alpha kinase GCN2 (Homo sapiens), Q9P2K8 [S808G]; assay: Inhibition of T7 bacteriophage fused human GCN2 S808G mutant Kinase domain-2 at 10 uM by KINOMEscan analysis relative to control
[12] = target: Dual specificity mitogen-activated protein kinase kinase 2 (Homo sapiens) (UniProt P36507); assay: Inhibition of T7 bacteriophage fused human MEK2 at 10 uM by KINOMEscan analysis relative to control; values are per cent of control
[13] = target: Dual specificity protein kinase CLK3 (Homo sapiens) (UniProt P49761); assay: Inhibition of T7 bacteriophage fused human CLK3 at 10 uM by KINOMEscan analysis relative to control
[14] = target: Ephrin type-A receptor 3 (Homo sapiens) (UniProt P29320); assay: Inhibition of T7 bacteriophage fused human EPHA3 at 10 uM by KINOMEscan analysis relative to control
[15] = target: Mitogen-activated protein kinase 9 (Homo sapiens) (UniProt P45984); assay: Inhibition of T7 bacteriophage fused human JNK2 at 10 uM by KINOMEscan analysis relative to control
[16] = target: Serine/threonine-protein kinase ICK (Homo sapiens) (UniProt Q9UPZ9); assay: Inhibition of T7 bacteriophage fused human ICK at 10 uM by KINOMEscan analysis relative to control; values are per cent of control
[17] = target: Tyrosine-protein kinase CSK (Homo sapiens) (UniProt P41240); assay: Inhibition of T7 bacteriophage fused human CSK at 10 uM by KINOMEscan analysis relative to control; values are per cent of control
[18] = target: Cyclin-dependent kinase 8 (Homo sapiens) (UniProt P49336); assay: Inhibition of T7 bacteriophage fused human CDK8 at 10 uM by KINOMEscan analysis relative to control
[19] = target: Serine/threonine-protein kinase MRCK alpha (Homo sapiens) (UniProt Q5VT25); assay: Inhibition of T7 bacteriophage fused human MRCKA at 10 uM by KINOMEscan analysis relative to control
[20] = target: Serine/threonine-protein kinase 25 (Homo sapiens) (UniProt O00506); assay: Inhibition of T7 bacteriophage fused human YSK1 at 10 uM by KINOMEscan analysis relative to control
[21] = test system: Tyrosine-protein kinase ABL1 (Homo sapiens), P00519 [Q252H]; assay: Inhibition of T7 bacteriophage fused human nonphosphorylated ABL1 Q252H mutant at 10 uM by KINOMEscan analysis relative to control
[22] = test system: Epidermal growth factor receptor (Homo sapiens), P00533 [G719S]; assay: Inhibition of T7 bacteriophage fused human EGFR G719S mutant at 10 uM by KINOMEscan analysis relative to control
[23] = target: Insulin receptor (Homo sapiens) (UniProt P06213); assay: Inhibition of T7 bacteriophage fused human INSR at 10 uM by KINOMEscan analysis relative to control; values are per cent of control
[24] = target: Phosphatidylinositol 5-phosphate 4-kinase type-2 gamma (Homo sapiens) (UniProt Q8TBX8); assay: Inhibition of T7 bacteriophage fused human PIP5K2C at 10 uM by KINOMEscan analysis relative to control
[25] = target: Ephrin type-B receptor 6 (Homo sapiens) (UniProt O15197); assay: Inhibition of T7 bacteriophage fused human EPHB6 at 10 uM by KINOMEscan analysis relative to control
[26] = target: Cyclin-dependent kinase 4/cyclin D1 (Homo sapiens) (UniProt P11802+P24385); assay: Inhibition of T7 bacteriophage fused human CDK4-cyclinD1 at 10 uM by KINOMEscan analysis relative to control; type: protein-complex assay
[27] = target: Serine/threonine-protein kinase DCLK3 (Homo sapiens) (UniProt Q9C098); assay: Inhibition of T7 bacteriophage fused human DCAMKL3 at 10 uM by KINOMEscan analysis relative to control; values are per cent of control
[28] = test system: Receptor-type tyrosine-protein kinase FLT3 (Homo sapiens), P36888 [UNDEFINED MUTATION]; assay: Inhibition of T7 bacteriophage fused human FLT3 ITD mutant at 10 uM by KINOMEscan analysis relative to control
[29] = target: Calcium/calmodulin-dependent protein kinase type 1G (Homo sapiens) (UniProt Q96NX5); assay: Inhibition of T7 bacteriophage fused human CAMK1G at 10 uM by KINOMEscan analysis relative to control
[30] = target: Ephrin type-A receptor 7 (Homo sapiens) (UniProt Q15375); assay: Inhibition of T7 bacteriophage fused human EPHA7 at 10 uM by KINOMEscan analysis relative to control; values are per cent of control

Mitogen-activated protein kinase 9 (Homo sapiens), sequence (P45984 whole entry, looked up, the tested form may be a part): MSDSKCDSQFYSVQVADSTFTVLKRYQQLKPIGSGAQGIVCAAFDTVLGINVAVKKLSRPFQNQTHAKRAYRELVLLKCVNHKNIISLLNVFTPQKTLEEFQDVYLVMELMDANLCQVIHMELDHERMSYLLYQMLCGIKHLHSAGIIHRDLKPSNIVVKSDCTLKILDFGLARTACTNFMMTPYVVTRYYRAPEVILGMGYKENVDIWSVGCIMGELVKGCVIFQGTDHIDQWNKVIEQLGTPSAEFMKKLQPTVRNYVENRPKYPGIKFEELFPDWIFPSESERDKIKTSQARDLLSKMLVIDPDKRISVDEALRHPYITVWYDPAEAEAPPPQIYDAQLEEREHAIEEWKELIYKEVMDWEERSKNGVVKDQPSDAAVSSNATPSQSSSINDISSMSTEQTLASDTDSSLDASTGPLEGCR
Serine/threonine-protein kinase PAK 3 (Homo sapiens), sequence (O75914 whole entry, looked up, the tested form may be a part): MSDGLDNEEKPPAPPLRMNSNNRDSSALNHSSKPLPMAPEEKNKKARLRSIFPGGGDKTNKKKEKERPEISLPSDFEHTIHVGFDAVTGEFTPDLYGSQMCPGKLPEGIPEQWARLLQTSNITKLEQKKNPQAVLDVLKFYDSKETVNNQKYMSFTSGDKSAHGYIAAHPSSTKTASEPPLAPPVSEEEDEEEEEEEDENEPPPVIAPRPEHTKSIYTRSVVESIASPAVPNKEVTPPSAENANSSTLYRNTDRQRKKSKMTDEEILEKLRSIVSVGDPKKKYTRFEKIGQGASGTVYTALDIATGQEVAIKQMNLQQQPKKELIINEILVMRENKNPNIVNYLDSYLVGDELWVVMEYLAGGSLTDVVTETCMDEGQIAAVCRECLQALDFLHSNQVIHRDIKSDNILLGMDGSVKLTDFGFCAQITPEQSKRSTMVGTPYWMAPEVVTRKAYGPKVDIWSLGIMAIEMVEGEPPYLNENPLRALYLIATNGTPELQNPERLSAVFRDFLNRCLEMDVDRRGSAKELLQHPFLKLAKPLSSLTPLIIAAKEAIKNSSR
Ephrin type-B receptor 6 (Homo sapiens), sequence (O15197 whole entry, the tested form may be a part): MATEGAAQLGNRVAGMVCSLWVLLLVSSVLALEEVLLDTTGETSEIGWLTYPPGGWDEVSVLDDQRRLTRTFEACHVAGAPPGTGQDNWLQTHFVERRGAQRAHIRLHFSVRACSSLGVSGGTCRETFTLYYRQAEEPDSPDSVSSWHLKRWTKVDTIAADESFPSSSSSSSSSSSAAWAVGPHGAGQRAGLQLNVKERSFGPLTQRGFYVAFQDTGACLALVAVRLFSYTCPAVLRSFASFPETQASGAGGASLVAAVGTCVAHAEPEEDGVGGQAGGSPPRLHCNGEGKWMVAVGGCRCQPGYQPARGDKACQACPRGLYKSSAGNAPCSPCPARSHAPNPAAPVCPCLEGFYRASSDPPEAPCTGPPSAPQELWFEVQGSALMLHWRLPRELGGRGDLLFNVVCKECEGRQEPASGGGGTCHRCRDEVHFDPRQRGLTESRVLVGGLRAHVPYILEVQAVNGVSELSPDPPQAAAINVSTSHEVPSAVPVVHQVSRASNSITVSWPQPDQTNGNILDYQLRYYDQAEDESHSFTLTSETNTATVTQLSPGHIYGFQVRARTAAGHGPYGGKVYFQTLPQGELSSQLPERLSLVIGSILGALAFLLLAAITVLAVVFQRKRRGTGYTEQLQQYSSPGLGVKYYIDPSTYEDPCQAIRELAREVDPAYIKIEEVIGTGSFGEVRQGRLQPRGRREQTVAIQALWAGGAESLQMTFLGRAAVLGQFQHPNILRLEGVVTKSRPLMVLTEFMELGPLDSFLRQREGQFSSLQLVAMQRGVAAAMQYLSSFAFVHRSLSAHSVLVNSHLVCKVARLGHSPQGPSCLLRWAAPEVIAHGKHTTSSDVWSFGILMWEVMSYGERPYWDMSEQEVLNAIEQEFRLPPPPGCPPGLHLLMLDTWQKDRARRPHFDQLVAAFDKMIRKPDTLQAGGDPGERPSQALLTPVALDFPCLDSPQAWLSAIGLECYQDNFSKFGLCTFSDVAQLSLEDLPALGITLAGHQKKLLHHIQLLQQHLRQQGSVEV
Mitogen-activated protein kinase kinase kinase 3 (Homo sapiens), sequence (Q99759 whole entry, the tested form may be a part): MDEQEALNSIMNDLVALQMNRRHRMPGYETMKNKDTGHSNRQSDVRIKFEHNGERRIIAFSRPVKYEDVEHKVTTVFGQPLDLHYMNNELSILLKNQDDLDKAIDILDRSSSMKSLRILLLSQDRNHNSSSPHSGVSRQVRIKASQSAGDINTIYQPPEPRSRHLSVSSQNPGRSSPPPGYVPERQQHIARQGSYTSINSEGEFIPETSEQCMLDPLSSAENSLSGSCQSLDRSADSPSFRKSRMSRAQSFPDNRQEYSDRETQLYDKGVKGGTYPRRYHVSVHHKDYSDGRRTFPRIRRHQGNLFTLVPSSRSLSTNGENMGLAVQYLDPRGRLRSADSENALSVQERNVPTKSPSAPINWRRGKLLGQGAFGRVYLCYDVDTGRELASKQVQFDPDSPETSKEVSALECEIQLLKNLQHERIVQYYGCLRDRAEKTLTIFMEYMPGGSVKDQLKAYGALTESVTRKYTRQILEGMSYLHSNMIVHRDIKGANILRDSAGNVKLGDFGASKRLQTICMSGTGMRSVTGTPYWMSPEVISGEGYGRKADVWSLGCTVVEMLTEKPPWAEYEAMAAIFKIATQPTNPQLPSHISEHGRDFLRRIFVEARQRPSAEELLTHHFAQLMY
Serine/threonine-protein kinase MRCK alpha (Homo sapiens), sequence (Q5VT25 whole entry, the tested form may be a part): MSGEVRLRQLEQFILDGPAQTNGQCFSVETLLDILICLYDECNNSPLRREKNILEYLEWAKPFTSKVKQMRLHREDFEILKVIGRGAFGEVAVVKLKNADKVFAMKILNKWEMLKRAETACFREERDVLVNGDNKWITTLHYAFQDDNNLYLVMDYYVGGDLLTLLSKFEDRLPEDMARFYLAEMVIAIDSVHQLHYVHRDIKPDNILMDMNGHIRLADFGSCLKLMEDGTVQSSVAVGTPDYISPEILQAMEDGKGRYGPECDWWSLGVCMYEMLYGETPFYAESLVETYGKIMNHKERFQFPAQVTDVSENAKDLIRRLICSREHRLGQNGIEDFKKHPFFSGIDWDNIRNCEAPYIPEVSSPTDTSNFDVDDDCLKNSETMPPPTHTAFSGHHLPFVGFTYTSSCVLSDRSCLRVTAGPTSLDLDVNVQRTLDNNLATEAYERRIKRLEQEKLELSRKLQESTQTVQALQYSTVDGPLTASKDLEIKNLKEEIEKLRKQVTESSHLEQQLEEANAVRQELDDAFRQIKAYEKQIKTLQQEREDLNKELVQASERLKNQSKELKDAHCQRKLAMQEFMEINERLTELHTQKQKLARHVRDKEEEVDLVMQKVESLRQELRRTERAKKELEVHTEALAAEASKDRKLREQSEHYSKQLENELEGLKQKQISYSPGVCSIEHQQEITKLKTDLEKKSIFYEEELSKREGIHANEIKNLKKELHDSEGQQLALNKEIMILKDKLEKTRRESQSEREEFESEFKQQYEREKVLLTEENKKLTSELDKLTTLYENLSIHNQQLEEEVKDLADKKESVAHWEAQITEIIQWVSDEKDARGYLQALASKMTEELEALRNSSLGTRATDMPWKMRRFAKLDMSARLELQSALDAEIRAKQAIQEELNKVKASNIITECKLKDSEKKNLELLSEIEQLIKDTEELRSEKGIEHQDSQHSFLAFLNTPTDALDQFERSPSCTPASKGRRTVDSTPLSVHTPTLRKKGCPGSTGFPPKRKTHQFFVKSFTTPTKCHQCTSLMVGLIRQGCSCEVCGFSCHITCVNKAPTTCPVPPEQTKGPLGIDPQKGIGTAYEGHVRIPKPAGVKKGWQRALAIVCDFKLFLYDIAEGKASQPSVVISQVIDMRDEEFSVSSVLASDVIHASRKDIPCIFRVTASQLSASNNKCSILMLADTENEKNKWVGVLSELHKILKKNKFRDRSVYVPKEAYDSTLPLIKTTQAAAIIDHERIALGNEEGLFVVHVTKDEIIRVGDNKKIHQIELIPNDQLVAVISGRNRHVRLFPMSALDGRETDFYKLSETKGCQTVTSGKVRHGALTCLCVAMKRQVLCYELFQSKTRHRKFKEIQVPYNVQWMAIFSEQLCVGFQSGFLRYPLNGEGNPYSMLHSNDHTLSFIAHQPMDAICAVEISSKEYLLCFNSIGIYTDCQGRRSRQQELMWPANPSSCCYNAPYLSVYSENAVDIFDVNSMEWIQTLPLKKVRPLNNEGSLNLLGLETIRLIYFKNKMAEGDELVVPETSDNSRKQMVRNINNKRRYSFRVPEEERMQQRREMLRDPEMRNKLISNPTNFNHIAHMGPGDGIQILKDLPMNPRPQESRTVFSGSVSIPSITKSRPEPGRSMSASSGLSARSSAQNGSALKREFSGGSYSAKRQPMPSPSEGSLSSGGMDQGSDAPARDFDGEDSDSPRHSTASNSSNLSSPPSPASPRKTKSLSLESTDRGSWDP
Cyclin-dependent kinase 7 (Homo sapiens), sequence (P50613 whole entry, the tested form may be a part): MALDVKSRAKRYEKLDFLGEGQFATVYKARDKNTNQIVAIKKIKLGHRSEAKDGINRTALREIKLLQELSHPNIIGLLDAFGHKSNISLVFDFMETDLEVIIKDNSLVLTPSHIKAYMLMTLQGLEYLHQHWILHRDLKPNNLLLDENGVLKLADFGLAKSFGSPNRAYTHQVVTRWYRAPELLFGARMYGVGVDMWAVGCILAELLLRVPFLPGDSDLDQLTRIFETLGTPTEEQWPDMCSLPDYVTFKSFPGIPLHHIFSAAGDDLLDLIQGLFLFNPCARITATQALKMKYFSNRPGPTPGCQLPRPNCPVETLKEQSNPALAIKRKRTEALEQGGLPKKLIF
Mitogen-activated protein kinase 11 (Homo sapiens), sequence (Q15759 whole entry, the tested form may be a part): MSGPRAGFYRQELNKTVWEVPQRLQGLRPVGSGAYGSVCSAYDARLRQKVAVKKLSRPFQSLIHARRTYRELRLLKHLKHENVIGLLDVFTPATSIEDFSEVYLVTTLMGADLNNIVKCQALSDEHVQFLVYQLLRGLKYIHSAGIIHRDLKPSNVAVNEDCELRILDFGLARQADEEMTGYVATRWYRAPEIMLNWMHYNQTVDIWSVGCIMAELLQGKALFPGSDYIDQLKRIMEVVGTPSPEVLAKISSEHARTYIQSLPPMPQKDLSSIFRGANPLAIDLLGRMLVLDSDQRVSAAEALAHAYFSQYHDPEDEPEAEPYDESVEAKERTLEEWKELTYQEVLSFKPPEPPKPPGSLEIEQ

Work on `COc1cc(N2CCC(N3CCN(C)CC3)CC2)ccc1Nc1ncc2c(n1)N(C)c1ccccc1C(=O)N2C` yielded a residual activity [1] of 60%, an inhibition [2] of 100% and an inhibition [3] of 100%. The inhibition [4] was 100%, the inhibition [5] was 86% and the inhibition [6] was 97%. For the same compound, the residual activity [7] was 50%, the inhibition [8] was 100% and the inhibition [9] was 100%. The inhibition [10] was 83%, the inhibition [11] was 95% and the residual activity [12] was 99%. The inhibition [13] was 95%, the inhibition [14] was 100% and the inhibition [15] was 94%. For the same compound, the residual activity [16] was 90%, the residual activity [17] was 90% and the inhibition [18] was 100%. It also gave an inhibition [19] of 100%, an inhibition [20] of 68% and an inhibition [21] of 100%. The inhibition [22] was 86%, the residual activity [23] was 84% and the inhibition [24] was 40%. The inhibition [25] was 31%, the inhibition [26] was 100% and the residual activity [27] was 90%. It also gave an inhibition [28] of 100%, an inhibition [29] of 74% and a residual activity [30] of 97%.
